Reference: ChEMBL document CHEMBL4725235, “Small molecule DTDQ exerts anti-metastatic effects in DU145 human castration-resistant prostate cancer cells via modulations of ERK, JNK, p38 and c-Myc signaling pathways” (Bioorg Med Chem Lett, 2020)
The source made the active and inactive calls.

Columns and labels:
DU-145 [1] = experiment: Modulatory activity of MAPK signaling pathway in human DU-145 cells assessed as NFkappaB expression at 12 to 24 uM incubated for 24 hrs by Western blot analysis; type: cell-based; conditions: dose microM 12-24, time 24.0 hrs
DU-145 [2] = experiment: Modulatory activity of MAPK signaling pathway in human DU-145 cells assessed as reduction in c-MYC expression at 12 to 24 uM incubated for 24 hrs by Western blot analysis; type: cell-based; conditions: filed as modulator, dose microM 12-24, time 24.0 hrs
DU-145 [3] = experiment: Modulatory activity of MAPK signaling pathway in human DU-145 cells assessed as EST-1 expression at 12 to 24 uM incubated for 24 hrs by Western blot analysis; type: cell-based; conditions: dose microM 12-24, time 24.0 hrs
PC-3 [4] = experiment: Modulatory activity of MAPK signaling pathway in human PC-3 cells assessed as reduction in c-MYC expression at 12 to 24 uM incubated for 24 hrs by Western blot analysis; type: cell-based; conditions: filed as modulator, dose microM 12-24, time 24.0 hrs
DU-145 [5] = experiment: Inhibition of metastasis in human DU-145 cells assessed as reduction in MMP2 expression incubated for 48 hrs by Western blot analysis; type: functional, cell-based; conditions: dose microM 12-24, time 48.0 hrs
DU-145 [6] = experiment: Modulatory activity of MAPK signaling pathway in human DU-145 cells assessed as reduction in ERK phosphorylation incubated for 24 hrs by Western blot analysis; type: cell-based; conditions: filed as modulator, dose microM 12-24, time 24.0 hrs
DU-145 [7] = experiment: Antiinvasive activity against human DU-145 cells assessed as inhibition of cell migration at 12 to 24 uM incubated for 20 hrs by Boyden chamber assay; type: functional, cell-based; conditions: dose microM 12-24, time 20.0 hrs
PC-3 [8] = experiment: Inhibition of colony formation in human PC-3 cells incubated for 2 weeks with media replacement for every 3 days by crystal violet staining based microscopic analysis; type: functional, cell-based; conditions: dose microM 12-24, time 2.0 weeks
DU-145 [9] = experiment: Inhibition of metastasis in human DU-145 cells assessed as reduction in MMP2 mRNA expression at 12 to 24 uM incubated for 48 hrs by qRT-PCR analysis; type: functional, cell-based; conditions: dose microM 12-24, time 48.0 hrs
PC-3 [10] = experiment: Modulatory activity of MAPK signaling pathway in human PC-3 cells assessed as increase in JNK phosphorylation at 12 to 24 uM incubated for 24 hrs by Western blot analysis; type: cell-based; conditions: filed as modulator, dose microM 12-24, time 24.0 hrs
PC-3 [11] = experiment: Cytotoxicity against human PC-3 cells assessed as reduction in cell viability at 40 uM incubated for 24 hrs by CCK8 assay relative to control; type: functional
PC-3 [12] = experiment: Modulatory activity of MAPK signaling pathway in human PC-3 cells assessed as beta-catenine expression at 12 to 24 uM incubated for 24 hrs by Western blot analysis; type: cell-based; conditions: dose microM 12-24, time 24.0 hrs
DU-145 [13] = experiment: Modulatory activity of MAPK signaling pathway in human DU-145 cells assessed as increase in JNK activation at 12 to 24 uM incubated for 24 hrs by Western blot analysis; type: cell-based; conditions: filed as modulator, dose microM 12-24, time 24.0 hrs
DU-145 [14] = experiment: Modulatory activity of MAPK signaling pathway in human DU-145 cells assessed as beta-catenine expression at 12 to 24 uM incubated for 24 hrs by Western blot analysis; type: cell-based; conditions: dose microM 12-24, time 24.0 hrs
DU-145 [15] = experiment: Inhibition of colony formation in human DU-145 cells at 12 to 24 uM incubated for 2 weeks with media replacement for every 3 days by crystal violet staining based microscopic analysis; type: functional, cell-based; conditions: dose microM 12-24, time 2.0 weeks
PC-3 [16] = experiment: Inhibition of cell migration in human PC-3 cells at 12 to 24 uM incubated for 24 hrs by wound healing assay; type: functional, cell-based; conditions: dose microM 12-24, time 24.0 hrs
PC-3 [17] = experiment: Modulatory activity of MAPK signaling pathway in human PC-3 cells assessed as NFkappaB expression at 12 to 24 uM incubated for 24 hrs by Western blot analysis; type: cell-based; conditions: dose microM 12-24, time 24.0 hrs
DU-145 [18] = experiment: Modulatory activity of MAPK signaling pathway in human DU-145 cells assessed as increase in p38 activation at 12 to 24 uM incubated for 24 hrs by Western blot analysis; type: cell-based; conditions: filed as modulator, dose microM 12-24, time 24.0 hrs
PC-3 [19] = experiment: Modulatory activity of MAPK signaling pathway in human PC-3 cells assessed as EST-1 expression at 12 to 24 uM incubated for 24 hrs by Western blot analysis; type: cell-based; conditions: dose microM 12-24, time 24.0 hrs
DU-145 [20] = experiment: Cytotoxicity against human DU-145 cells assessed as reduction in cell viability at 10 uM incubated for 24 hrs by CCK8 assay relative to control; type: functional
PC-3 [21] = experiment: Inhibition of metastasis in human PC-3 cells assessed as reduction in MMP9 expression at 12 to 24 uM incubated for 48 hrs by Western blot analysis; type: functional, cell-based; conditions: dose microM 12-24, time 48.0 hrs
DU-145 [22] = experiment: Inhibition of metastasis in human DU-145 cells assessed as reduction in MMP9 mRNA expression at 12 to 24 uM incubated for 48 hrs by qRT-PCR analysis; type: functional, cell-based; conditions: dose microM 12-24, time 48.0 hrs
PC-3 [23] = experiment: Modulatory activity of MAPK signaling pathway in human PC-3 cells assessed as increase in p38 phosphorylation at 12 to 24 uM incubated for 24 hrs by Western blot analysis; type: cell-based; conditions: dose microM 12-24, time 24.0 hrs
PC-3 [24] = experiment: Inhibition of metastasis in human PC-3 cells assessed as reduction in MMP2 expression at 12 to 24 uM incubated for 48 hrs by Western blot analysis; type: functional, cell-based; conditions: dose microM 12-24, time 48.0 hrs
DU-145 [25] = experiment: Inhibition of cell migration in human DU-145 cells at 12 to 24 uM incubated for 24 hrs by wound healing assay; type: functional, cell-based; conditions: dose microM 12-24, time 24.0 hrs
PC-3 [26] = experiment: Modulatory activity of MAPK signaling pathway in human PC-3 cells assessed as reduction in ERK phosphorylation incubated for 24 hrs by Western blot analysis; type: cell-based; conditions: filed as modulator, dose microM 12-24, time 24.0 hrs
DU-145 [27] = experiment: Inhibition of metastasis in human DU-145 cells assessed as reduction in MMP9 expression incubated for 48 hrs by Western blot analysis; type: functional, cell-based; conditions: dose microM 12-24, time 48.0 hrs
DU-145 [28] = experiment: Cytotoxicity against human DU-145 cells assessed as reduction in cell viability after 24 hrs by CCK8 assay; type: functional, cell-based; conditions: DU-145, 24 h

COc1cc(C2CC(=O)Nc3cc(C)c(C)cc32)cc(OC)c1OC (stereo not drawn)
inactive: Activity (DU-145 [1]) | Activity (DU-145 [3]) | Activity (PC-3 [12]) | Activity (DU-145 [14]) | Activity (PC-3 [17]) | Activity (PC-3 [19]) | inhibition (PC-3 [21]) | Activity (PC-3 [23])
> 200 µM: IC50 (DU-145 [28])
active: Activity (DU-145 [2]) | Activity (PC-3 [4]) | inhibition (DU-145 [5]) Dose-dependent effect | Activity (DU-145 [6]) Dose-dependent effect | inhibition (DU-145 [7]) | inhibition (PC-3 [8]) Dose-dependent effect | inhibition (DU-145 [9]) | Activity (PC-3 [10]) | Activity (DU-145 [13]) | inhibition (DU-145 [15]) | inhibition (PC-3 [16]) | Activity (DU-145 [18]) | inhibition (DU-145 [22]) | inhibition (PC-3 [24]) | inhibition (DU-145 [25]) | Activity (PC-3 [26]) | inhibition (DU-145 [27]) Dose-dependent effect
70%: Activity (DU-145 [20])
20%: Activity (PC-3 [11])
